Laboratory results published in patent US20130337579A1, “Methods for Determining Protein Ligand Binding” (UNIVERSITY OF MARYLAND, COLLEGE PARK, priority 2010, published 2013).

Assays:
E. coli CRP = biological target: T1, E. coli CRP (Escherichia coli, UniProt P0ACJ8); assay: DRaCALA binding of radiolabeled nucleotides to purified CRP; settings: 20 μM purified protein; 500 nM 14C-cAMP, 4 nM 32P-ATP or 4 nM 32P-cdiGMP
T1 construct: His; made in house
Protocol: (§1) Radiolabeled ligands were incubated with each of the proteins and the mixtures were spotted on nitrocellulose. After spreading by capillary action, membranes were dried and quantitated by phosphorimager. […] The specificity of Alg44PilZ binding to cdiGMP was further tested by competition with excess unlabeled nucleotides (400-fold molar excess relative to the Alg44PilZ protein).
(§2) Protein or whole cell lysates in 1× cdiGMP binding buffer (20 μl) was mixed with 4 nM of radiolabeled nucleotide and allowed to incubate for 10 minutes at room temperature. Radiolabeled nucleotide was competed away by cold nucleotides in concentrations and for times indicated. Purified proteins were tested in technical replicates. Whole cell lysates in FIG. 4 and FIG. 12 were tested in biological triplicates. Whole cell lysates in FIG. 5 were tested in technical replicates. These mixtures were pipetted (2.5-5 μl) onto dry, untreated nitrocellulose (GE Healthcare) in triplicate and allowed to dry completely before quantification. An FLA7100 Fujifilm Life Science Phosphorimager was used to detect luminescence following a 5-minute exposure of blotted nitrocellulose to phosphorimager film. Data was quantified using Fujifilm Multi Gauge software v3.0.

E. coli NtrB = E. coli NtrB (Escherichia coli, UniProt P0AFB5); assay: DRaCALA binding of radiolabeled nucleotides to purified NtrB; settings: 20 μM purified protein; 500 nM 14C-cAMP, 4 nM 32P-ATP or 4 nM 32P-cdiGMP
Sequence of E. coli NtrB (P0AFB5 whole entry): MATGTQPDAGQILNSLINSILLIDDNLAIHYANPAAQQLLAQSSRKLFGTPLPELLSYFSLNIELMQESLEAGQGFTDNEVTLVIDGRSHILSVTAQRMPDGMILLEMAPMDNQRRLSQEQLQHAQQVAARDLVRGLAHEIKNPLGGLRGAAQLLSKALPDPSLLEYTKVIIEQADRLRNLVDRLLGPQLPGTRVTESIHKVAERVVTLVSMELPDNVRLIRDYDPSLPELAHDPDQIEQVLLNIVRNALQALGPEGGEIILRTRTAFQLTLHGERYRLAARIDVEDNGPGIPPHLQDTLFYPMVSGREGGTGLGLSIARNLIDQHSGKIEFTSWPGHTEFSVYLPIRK
Protocol: as §1, §2

PelD = assay: DRaCALA of whole cell lysates of E. coli BL21(DE3) expressing PelD; type: binding, P. aeruginosa; settings: PelD with or without MBP tag
Protocol: FIG. 10. Binding of cdiGMP to whole cell lysates expressing soluble or insoluble cdiGMP binding proteins. (A) BL21(DE3) cells expressing the indicated proteins were analyzed by PAGE and coomassie staining of whole cell (W) and soluble (S) fractions. Arrows indicate the overexpressed protein of the correct molecular weight in whole cell lysates. Molecular weights of proteins are indicated on the left in kilodaltons. (B) Spots of BL21 cells overexpressing the indicated proteins were assayed for cdiGMP binding by DRaCALA. (C) Quantification of the data shown in (B). (D) Binding of ^32P-cdiGMP to various dilutions of lysates of BL21(DE3) cells expressing the indicated proteins.
A major limitation of most biochemical assays is the requirement for purified protein. We asked whether DRaCALA could be applied to crude extracts to overcome this limitation. Alg44PilZ binding to cdiGMP requires a number of conserved residues, including R17, R21, D44 and S46, in the PilZ domain of the protein. E. coli BL21(DE3) expressing Alg44PilZ and variants with R21A, D44A, S46A, and R17A/R21A substitutions were lysed and tested for binding to cdiGMP using DRaCALA. […] A significant difference between the bound fractions for cdiGMP or GTP competition experiments was detected for the wild-type Alg44PilZ, but not for the PilZ domain mutants (FIGS. 4A and 4B). […]

[1] = test system: lysates from various organisms or tissues; assay: DRaCALA analysis of cdiGMP binding by lysates from various organisms or tissues
[2] = biological target: Maltose binding protein (MBP) (Escherichia coli, UniProt P0AEX9); settings: whole-cell lysate, 8 nM 32P-cdiGMP
Protocol: as §1

Vc2* riboswitch RNA = assay: Electrophoretic mobility shift assay (EMSA) of cdiGMP binding to Vc2* RNA; settings: read-out: Kd (apparent affinity)
Text: We have shown that protein interaction with DNA can be detected by DRaCALA. We wondered if the principle of DRaCALA would also apply to ribonucleic acids. In particular, can the DRaCALA technology be used to detect the interaction of riboswitches with their small molecule ligands. One example of such an interaction that has been of recent interest is the cdiGMP responsive Vc2 riboswitch identified in bacteria. To study such an interaction with DRaCALA, one of the binding partners must be immobilized. […] The biotinylated riboswitch was sequestered by streptavidin, allowing the nucleic acid to take the place of protein as the immobile partner in the binding assay. Vc2* was tested directly for sequestration of cdiGMP and also biotinylated and tested for binding to cdiGMP in the presence or absence of streptavidin. The 4 nM radiolabelled cdiGMP was mobile alone and in the presence of the Vc2* or biotinylated Vc2* RNA (FIG. 19A, lanes 1-3). […] Biotinylated Vc2* RNA and bound cdiGMP was immobilized by streptavidin as expected (lane 6). […]
Gel shift assays were performed using 8% acrylamide gels with 100 mM Tris/HEPES, pH=7.5, 10 mM MgCl2, and 0.1 mM EDTA in the gel and running buffer. […] Gels were imaged with a phosphorimager and fraction bound quantified with Fuji Image Guage software. […]

Alg44PilZ = biological target: T2, Alg44PilZ (Pseudomonas aeruginosa, UniProt Q9HY69); settings: previously determined by ITC (Merighi 2007); cited from earlier work
T2 construct: Previous studies of the dissociation rate of cdiGMP from Alg44PilZ
T2 sequence (Q9HY69 16-116): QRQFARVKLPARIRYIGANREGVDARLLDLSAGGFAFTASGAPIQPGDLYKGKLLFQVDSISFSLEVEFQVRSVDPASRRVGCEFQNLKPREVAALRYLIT

T1 sequence (P0ACJ8 whole entry): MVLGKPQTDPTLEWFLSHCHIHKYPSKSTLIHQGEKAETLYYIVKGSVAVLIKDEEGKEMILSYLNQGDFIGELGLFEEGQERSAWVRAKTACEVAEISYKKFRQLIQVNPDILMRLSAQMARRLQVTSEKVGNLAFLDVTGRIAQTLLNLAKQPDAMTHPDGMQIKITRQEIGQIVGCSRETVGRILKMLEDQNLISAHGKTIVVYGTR

Nc1nc2c(ncn2[C@@H]2O[C@@H]3CO[P@](=O)(O)O[C@H]4[C@@H](O)[C@H](n5cnc6c(=O)[nH]c(N)nc65)O[C@@H]4CO[P@](=O)(O)O[C@H]3[C@H]2O)c(=O)[nH]1 [cdiGMP, cyclic-di-GMP]
binding to CRP (sequestration of radiolabel signal) (E. coli CRP): did not bind | binding to NtrB (sequestration of radiolabel signal) (E. coli NtrB): not | specific sequestration by whole cell extracts with soluble or insoluble protein (PelD): specifically sequester | BC (non-specific binding) ([1]; mammalian tissue extracts from rodent and human cell lines): > 0.233 | BSp ([1]; whole cell extracts of protozoa, fungi and nematodes): below 1.17 | binding by protein extracts from E. coli expressing MBP alone [2]: did not bind | Kd (Vc2* riboswitch RNA): 9.8 nM | Kd (Alg44PilZ): 5600 nM
